Measured values reported in patent US11839616B2, “Ocular pharmaceutical compositions” (THE REGENTS OF THE UNIVERSITY OF CALIFORNIA, priority 2017, dated 2023).
“Also recorded” adds a separate entry of the source. Read-outs that look alike come from different tables or passages of the source.

How the values were obtained:
CFTR [1] = biological target: T1, CFTR (Oryctolagus cuniculus, UniProt Q00554); test: short-circuit current in freshly isolated rabbit conjunctiva, CFTR; type: cell-based
T1 construct: ocular surface PD measurements provide information about CFTR function in its native environment; from tissue; host or cells: rabbit ocular surface in vivo (cornea and conjunctiva); freshly isolated rabbit forniceal and palpebral conjunctiva
Procedure: Short-circuit current was measured in freshly isolated rabbit conjunctiva, as described^16 with modification. Rabbits were euthanized by injection of 150 mg/kg euthasol into the marginal ear vein. The entire eyeball with eyelids intact was removed from the orbit to preserve conjunctival epithelium integrity. Within 10 min a sheet of forniceal and palpebral conjunctiva was dissected, mounted onto a P2304 tissue slider (Physiologic Instruments, San Diego, CA), and placed into the Ussing chamber. The apical and basolateral chambers contained (in mM): 120 NaCl, 3 KCl, 1 CaCl2, 1 MgCl2, 10 glucose, 25 NaHCO3 and 5 HEPES, pH 7.4. […] Hemichambers were connected to a DVC-1000 voltage clamp (World Precision Instruments Inc., Sarasota, FL) via Ag/AgCl electrodes and 3 M KCl agar bridges.
In separate electrophysiological studies, CFTR activation was measured in freshly isolated conjunctiva ex vivo by short-circuit current analysis.

CFTR [2] = biological target: T1, CFTR; test: open-circuit ocular surface potential difference (PD) in anesthetized rabbits, CFTR; type: in vivo; conditions: rabbit
Procedure: Open-circuit transepithelial potential difference (PD, in mV) at the ocular surface was measured continuously in anesthetized rabbits using a procedure modified from that established in mice. […] Rabbits were intubated and anesthetized with isoflurane, and respiratory rate, blood pressure and body temperature were monitored. For PD recording, solutions (see below) were serially perfused at 10 mL/min through PE-90 plastic tubing using a gravity multi-reservoir pinch-valve system (ALA Scientific, Westbury, NY) and a variable-flow peristaltic pump (medium flow model; Thermo Fisher Scientific, Fair Lawn, NJ). A probe catheter was fixed onto an adjustable stereotaxic frame with the tip immersed in solution contacting the ocular surface. Excess fluid was aspirated by continuous suction (low-powered wall vacuum) using ⅛-inch tubing (inner diameter 3/32 inch) positioned 3 mm from the orbit in order to maintain near-constant perfusate volume in contact with cornea, bulbar conjunctiva and palpebral conjunctiva without fluid runoff. The measuring electrode contacted the perfusion catheter and was connected to a high-impedance voltmeter (IsoMilivolt Meter; World Precision Instruments, Sarasota, FL). The reference electrode was grounded using a winged, 25-gauge needle filled with normal saline inserted subcutaneously in the abdomen. The measuring and reference electrodes consisted of Ag/AgCl with 3 M KCl agar bridges.
All solutions contained 10 M indomethacin to prevent CFTR activation by prostaglandins.

[3] = pharmacokinetics in tear fluid by LC/MS; type: in vivo; conditions: rabbit
Procedure: Compound A was quantified by liquid chromatography/mass spectroscopy (LC/MS) at 15 min, 1 hour, 2 hours, 6 hours and 24 hours after a single, 3-nmol topical dose. To recover Compound A at indicated times, three eye washes of 30 μL sterile PBS were done with solution recovered from the lateral and medial canthi after manual eyelid blinking using 50-μL glass capillary tubes. Pooled washes were diluted in three volumes of ethyl acetate, centrifuged at 13,000 rpm for 15 min, and the collected supernatant was analyzed by LC/MS (Waters 2695 HPLC with Micromass ZQ).^14 LC was done on an Xterra MS C18 column (2.1 mm×100 mm, 3.5 μm) with 0.2 mL/min water/acetonitrile containing 0.1% formic acid, 12 min linear gradient, 5-95% acetonitrile.
Corresponding compound concentrations in tear fluid (open circles, right ordinate) were estimated using tear volumes deduced from STT measurements in FIG. 2A.

CFTR-deficient mice = conditions: cited from earlier work
rabbits [4] = test: Schirmer Tear Test II after single topical dose (pharmacodynamics); type: in vivo, rabbit
Procedure: (§1) Tear production was measured using the anesthetized Schirmer Tear Test (STT, Eagle Vision, Memphis TN). To minimize reflex tearing, one drop of 0.5% proparacaine hydrochloride (Akorn, Lake Forest, TL) was placed onto the corneal surface and excess fluid was absorbed at the medial canthus using eye spear sponges (Fine Science Tools, Foster City, CA). After 5 min the notched strip was inserted into the lower lateral conjunctival fornix, maintaining contact with the lateral cornea. The wetted length (mm) of the strip indicated by blue dye appearance was read after 5 min.
Serial STT measurements were done before and at 1, 3, 6, 9, 12 and 24 hours following application of a single 30-μL drop of Compound A formulation (or vehicle alone) into the conjunctival sac. Both eyes received the same treatment to control for potential contralateral effects of a given treatment. Pharmacokinetics and Tissue Distribution
Compound A was tested for its efficacy in augmenting tear fluid production in rabbits. Prior work identified a formulation (0.325% CMC in Ringer's solution containing 0.015% BAC and 1% DMSO) that stably solubilized Compound A and was effective when delivered topically to mice.^15 A single application of 3 nmol Compound A ([…] of a 100 µM solution) increased tear volume by ˜60% for at least 9 hours compared to vehicle (FIG. 3A). […] When 3 nmol of Compound A was delivered in a more viscous formulation containing 0.625% (instead of 0.3%) CMC, to potentially increase Compound A ocular surface residence time, compound efficacy was unchanged (FIG. 3C).

CFTR [5] = biological target: CFTR (Homo sapiens, UniProt P13569); conditions: cited from earlier work; for extent of CFTR activation / EC50: cell cultures; for EC50: read-out: EC50 of CFTR activation
mice [6] = conditions: cited from earlier work
rabbits [7] = test: chronic administration, tear volume by STT; type: in vivo; conditions: rabbit, 3 nmol twice-daily for 28 days
Procedure: as §1
In chronic treatment studies, Compound A (3 nmol, or formulation control) was given twice daily (8 am and 4 pm) for 28 days. Two mL of blood was collected from the marginal ear vein in EDTA tubes. Rabbits were then euthanized using 150 mg/kg euthasol, and ocular tissues, serum and peripheral organs were collected. […]
In chronic treatment studies, eyes were treated twice daily for 28 days as described above. STT, intraocular pressure (IOP), and central corneal thickness were measured on days 0, 7, 14, 21 and 28. […] IOP was measured with a Tonolab rebound tonometer (Colonial Medical Supply, Windham, NH). Central corneal thickness was measured using the Corneo-Gage Plus 2 pachymeter (Sonogage Inc., Cleveland, OH). […]

cAMP = conditions: prior studies; cited from earlier work
[8] = liver; in vitro microsomal stability; cited from earlier work
[9] = tissue levels by LC/MS following chronic administration; type: in vivo; conditions: rabbit, 3 nmol twice-daily for 28 days
Procedure: In chronic treatment studies, Compound A (3 nmol, or formulation control) was given twice daily (8 am and 4 pm) for 28 days. Two mL of blood was collected from the marginal ear vein in EDTA tubes. Rabbits were then euthanized using 150 mg/kg euthasol, and ocular tissues, serum and peripheral organs were collected. Using a surgical microscope, 150 μL of aqueous humor was collected through the peripheral cornea using a 25-gauge needle, and 300 μL of vitreous fluid was aspirated through the pars plana with a 23-gauge needle. Following transcardial perfusion with heparinized phosphate-buffered saline (PBS), eyes were enucleated with lids intact, and the cornea, iris/ciliary body, lens, bulbar, forniceal and palpebral conjunctiva, and retina of both eyes were dissected, weighed, homogenized in 1:4 mixture of water:ethyl acetate (10 mL/1 g tissue) and centrifuged (3000 rpm for 15 min). Plasma, aqueous and vitreous samples were each mixed with 3 volumes of ethyl acetate and centrifuged for 15 min at 13,200 rpm, and the supernatant was evaporated and re-dissolved in HPLC eluent (100 μL of 1:3 water:acetonitrile containing 0.1% formic acid) for LC/MS analysis. Also, brain, kidney, heart and liver were removed, weighed, mixed with 1:4 mixture of water:ethyl acetate (10 mL/1 g tissue), and homogenized. The homogenized samples were vortexed and centrifuged (3000 rpm for 15 min), and the ethyl acetate-containing supernatant was evaporated, and then re-dissolved in HPLC eluent for LC/MS analysis. The lower limit of detection for Compound A was ˜0.2 pg/mg of homogenized tissue or biological fluid, which was defined as giving a signal-to-noise ratio >3.

rabbits [10] = test: chronic administration, ocular toxicity (clinical examination, histology); type: in vivo; conditions: rabbit
Procedure: In chronic treatment studies, eyes were treated twice daily for 28 days as described above. STT, intraocular pressure (IOP), and central corneal thickness were measured on days 0, 7, 14, 21 and 28. Slit lamp examinations were performed on days 0, 14 and 28 by a board-certified ophthalmologist blinded to treatment status. STT was done one hour after the first treatment of the day (9 am). IOP was measured with a Tonolab rebound tonometer (Colonial Medical Supply, Windham, NH). Central corneal thickness was measured using the Corneo-Gage Plus 2 pachymeter (Sonogage Inc., Cleveland, OH). […] One minute later, photographs of the eye were taken with a digital camera and staining was evaluated according to a 12-point scale as described^17: each corneal quadrant was scored in a blinded fashion on a 3-point scale: grade 0, no staining; grade 1, sporadic staining (involving <25% of the total surface); grade 2, diffuse punctate staining (25-75%); and grade 3, coalesced punctate staining (≥75%). The total grade is reported as the sum of scores from all 4 quadrants, ranging from 0 to 12. Conjunctival congestion, chemosis, discharge, corneal haze or neovascularization, anterior chamber cellular reaction or flare, iris neovascularization, lens opacification or loss of red reflex, were each rated using a modified McDonald-Shadduck scale on a four-point scale, where zero is normal.
A subset of chronically treated eyes were enucleated with eyelids intact after transcardial perfusion with PBS followed by 4% paraformaldehyde, and left overnight in 4° C. in 30% sucrose. […] Cryosections (8 μm thickness) were stained with hematoxylin and eosin (H&E) using a standard protocol.

mice [11] = conditions: lacrimal gland ablation, three times daily; cited from earlier work
ENaC [12] = test: short-circuit current in freshly isolated rabbit conjunctiva, amiloride; conditions: amiloride 10 μM
Procedure: Short-circuit current was measured in freshly isolated rabbit conjunctiva, as described^16 with modification. Rabbits were euthanized by injection of 150 mg/kg euthasol into the marginal ear vein. The entire eyeball with eyelids intact was removed from the orbit to preserve conjunctival epithelium integrity. Within 10 min a sheet of forniceal and palpebral conjunctiva was dissected, mounted onto a P2304 tissue slider (Physiologic Instruments, San Diego, CA), and placed into the Ussing chamber. The apical and basolateral chambers contained (in mM): 120 NaCl, 3 KCl, 1 CaCl2, 1 MgCl2, 10 glucose, 25 NaHCO3 and 5 HEPES, pH 7.4. Solutions were bubbled with 95% O2/5% CO2 and maintained at 37° C. Hemichambers were connected to a DVC-1000 voltage clamp (World Precision Instruments Inc., Sarasota, FL) via Ag/AgCl electrodes and 3 M KCl agar bridges.

ENaC [13] = test: open-circuit ocular surface potential difference (PD) in anesthetized rabbits, ENaC; conditions: rabbit, normal Cl- solution with amiloride 100 μM
Procedure: Open-circuit transepithelial potential difference (PD, in mV) at the ocular surface was measured continuously in anesthetized rabbits using a procedure modified from that established in mice. […] Rabbits were intubated and anesthetized with isoflurane, and respiratory rate, blood pressure and body temperature were monitored. For PD recording, solutions (see below) were serially perfused at 10 mL/min through PE-90 plastic tubing using a gravity multi-reservoir pinch-valve system (ALA Scientific, Westbury, NY) and a variable-flow peristaltic pump (medium flow model; Thermo Fisher Scientific, Fair Lawn, NJ). A probe catheter was fixed onto an adjustable stereotaxic frame with the tip immersed in solution contacting the ocular surface. Excess fluid was aspirated by continuous suction (low-powered wall vacuum) using ⅛-inch tubing (inner diameter 3/32 inch) positioned 3 mm from the orbit in order to maintain near-constant perfusate volume in contact with cornea, bulbar conjunctiva and palpebral conjunctiva without fluid runoff. The measuring electrode contacted the perfusion catheter and was connected to a high-impedance voltmeter (IsoMilivolt Meter; World Precision Instruments, Sarasota, FL). The reference electrode was grounded using a winged, 25-gauge needle filled with normal saline inserted subcutaneously in the abdomen. […]

P2Y2 receptors = P2Y2 receptors (Homo sapiens, UniProt P41231); conditions: phase III trials in the United States; cited from earlier work
[14] = rabbit, single topical dose of 3 nmol
[15] = 25 picomol topical administration

T1 sequence (Q00554 whole entry): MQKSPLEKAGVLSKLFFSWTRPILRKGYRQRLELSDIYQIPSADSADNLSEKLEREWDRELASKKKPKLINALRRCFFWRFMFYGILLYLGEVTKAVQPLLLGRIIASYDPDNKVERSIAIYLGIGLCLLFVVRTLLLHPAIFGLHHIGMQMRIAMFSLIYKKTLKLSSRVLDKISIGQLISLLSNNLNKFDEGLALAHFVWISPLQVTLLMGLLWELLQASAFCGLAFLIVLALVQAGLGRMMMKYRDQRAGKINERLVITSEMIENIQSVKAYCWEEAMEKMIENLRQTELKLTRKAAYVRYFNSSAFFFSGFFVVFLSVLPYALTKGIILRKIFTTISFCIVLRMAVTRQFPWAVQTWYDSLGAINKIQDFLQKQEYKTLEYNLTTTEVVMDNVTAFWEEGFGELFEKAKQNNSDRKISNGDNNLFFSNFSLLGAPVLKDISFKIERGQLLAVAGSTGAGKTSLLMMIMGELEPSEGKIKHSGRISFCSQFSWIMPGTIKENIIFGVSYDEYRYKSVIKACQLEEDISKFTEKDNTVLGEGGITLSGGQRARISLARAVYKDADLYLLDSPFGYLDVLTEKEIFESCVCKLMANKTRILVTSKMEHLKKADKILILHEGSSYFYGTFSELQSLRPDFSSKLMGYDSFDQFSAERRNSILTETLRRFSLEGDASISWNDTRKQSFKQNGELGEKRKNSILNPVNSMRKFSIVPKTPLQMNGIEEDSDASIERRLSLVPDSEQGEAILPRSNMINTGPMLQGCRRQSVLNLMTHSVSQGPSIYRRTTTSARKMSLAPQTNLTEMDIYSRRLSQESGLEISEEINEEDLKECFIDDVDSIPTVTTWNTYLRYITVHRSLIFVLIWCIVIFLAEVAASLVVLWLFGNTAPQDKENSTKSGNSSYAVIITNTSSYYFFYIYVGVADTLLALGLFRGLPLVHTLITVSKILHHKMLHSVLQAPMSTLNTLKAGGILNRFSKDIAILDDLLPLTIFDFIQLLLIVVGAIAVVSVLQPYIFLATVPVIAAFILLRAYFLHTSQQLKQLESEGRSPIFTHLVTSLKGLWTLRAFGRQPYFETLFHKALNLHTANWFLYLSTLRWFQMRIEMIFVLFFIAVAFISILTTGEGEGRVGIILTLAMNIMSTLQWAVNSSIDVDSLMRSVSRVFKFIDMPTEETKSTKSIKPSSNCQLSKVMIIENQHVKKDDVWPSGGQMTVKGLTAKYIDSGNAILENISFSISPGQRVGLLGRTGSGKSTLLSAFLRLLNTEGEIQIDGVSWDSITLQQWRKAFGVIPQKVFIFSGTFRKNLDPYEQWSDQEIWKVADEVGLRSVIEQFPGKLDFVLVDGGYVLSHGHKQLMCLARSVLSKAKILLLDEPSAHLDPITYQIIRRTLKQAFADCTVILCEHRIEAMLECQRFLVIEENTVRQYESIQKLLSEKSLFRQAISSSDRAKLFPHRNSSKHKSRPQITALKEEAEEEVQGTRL
Sequence of CFTR (Homo sapiens, UniProt P13569) (P13569 whole entry, species assumed): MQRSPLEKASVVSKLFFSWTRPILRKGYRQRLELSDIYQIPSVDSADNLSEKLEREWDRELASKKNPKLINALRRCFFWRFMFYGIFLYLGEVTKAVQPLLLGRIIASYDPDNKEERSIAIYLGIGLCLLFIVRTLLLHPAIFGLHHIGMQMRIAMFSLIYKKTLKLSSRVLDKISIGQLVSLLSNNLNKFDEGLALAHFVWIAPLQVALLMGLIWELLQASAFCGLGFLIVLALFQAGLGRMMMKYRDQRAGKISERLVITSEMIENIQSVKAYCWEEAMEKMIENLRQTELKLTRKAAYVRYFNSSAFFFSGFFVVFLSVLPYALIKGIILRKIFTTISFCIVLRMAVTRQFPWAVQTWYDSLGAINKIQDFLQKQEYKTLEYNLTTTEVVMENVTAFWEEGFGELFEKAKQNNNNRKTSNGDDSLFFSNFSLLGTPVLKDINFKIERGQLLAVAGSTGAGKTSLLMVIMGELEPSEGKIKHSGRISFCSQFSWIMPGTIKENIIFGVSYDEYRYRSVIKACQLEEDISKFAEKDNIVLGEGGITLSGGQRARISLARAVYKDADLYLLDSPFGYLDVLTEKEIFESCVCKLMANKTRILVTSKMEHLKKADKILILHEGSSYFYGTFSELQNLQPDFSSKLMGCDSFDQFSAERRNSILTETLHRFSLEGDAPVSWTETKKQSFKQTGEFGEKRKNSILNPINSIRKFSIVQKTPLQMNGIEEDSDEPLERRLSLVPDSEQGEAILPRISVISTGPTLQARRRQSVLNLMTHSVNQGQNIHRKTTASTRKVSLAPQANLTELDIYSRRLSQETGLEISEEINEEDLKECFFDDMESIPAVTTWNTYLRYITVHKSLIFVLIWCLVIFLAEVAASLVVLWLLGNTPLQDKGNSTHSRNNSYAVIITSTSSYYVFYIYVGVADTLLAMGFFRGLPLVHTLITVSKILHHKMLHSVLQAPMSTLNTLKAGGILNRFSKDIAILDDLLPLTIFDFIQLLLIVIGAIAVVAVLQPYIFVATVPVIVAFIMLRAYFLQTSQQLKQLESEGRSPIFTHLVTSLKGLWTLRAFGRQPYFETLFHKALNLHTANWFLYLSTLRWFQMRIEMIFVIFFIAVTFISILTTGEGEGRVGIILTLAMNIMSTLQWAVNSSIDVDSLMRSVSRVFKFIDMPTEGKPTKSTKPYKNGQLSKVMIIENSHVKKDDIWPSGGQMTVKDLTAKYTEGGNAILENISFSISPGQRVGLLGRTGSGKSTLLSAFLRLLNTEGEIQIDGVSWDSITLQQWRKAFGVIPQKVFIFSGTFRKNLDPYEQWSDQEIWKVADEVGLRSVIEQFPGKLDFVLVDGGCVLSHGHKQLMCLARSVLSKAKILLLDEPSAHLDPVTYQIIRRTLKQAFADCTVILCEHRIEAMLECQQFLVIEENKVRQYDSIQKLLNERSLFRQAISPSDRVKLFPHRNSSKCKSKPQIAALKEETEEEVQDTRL
Sequence of P2Y2 receptors (P41231 whole entry): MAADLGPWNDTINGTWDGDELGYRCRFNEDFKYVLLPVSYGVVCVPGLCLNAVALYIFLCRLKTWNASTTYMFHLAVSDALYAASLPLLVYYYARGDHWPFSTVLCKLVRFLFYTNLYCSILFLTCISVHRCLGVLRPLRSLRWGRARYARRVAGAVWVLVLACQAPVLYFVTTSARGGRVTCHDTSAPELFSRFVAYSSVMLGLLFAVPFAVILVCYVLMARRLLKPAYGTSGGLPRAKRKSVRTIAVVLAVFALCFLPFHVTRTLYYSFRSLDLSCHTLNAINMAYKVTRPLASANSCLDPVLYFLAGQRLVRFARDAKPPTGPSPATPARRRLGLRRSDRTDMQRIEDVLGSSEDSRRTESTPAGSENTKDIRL

Molecule: 3-[(3-Trifluoromethyl)phenyl]-5-[(4-carboxyphenyl)methylene]-2-thioxo-4-thiazolidinone [CFTRinh-172, reference compound]
- effect on the increases in short-circuit current (CFTR [1]; inhibitor added last): inhibited
- effect on the PD changes (CFTR [2]; CFTRinh-172 10 μM in final perfusion solution): largely reversed

Molecule: CNc1nc(Nc2ccccc2)nc(OCC(F)(F)C(F)F)n1 [Compound A, N-Methyl-N′-phenyl-6-(2,2,3,3-tetrafluoropropoxy)-1,3,5-triazine-2,4-diamine]
- time at predicted therapeutic concentrations in tear fluid ([3]; 3-nmol dose, concentrations estimated using tear volumes from STT): at least several hours
- Compound A recovered from tear fluid over time ([3]; single topical dose of 3 nmol, three eye washes): approximate exponential decline
- effect in CFTR-deficient mice (CFTR-deficient mice): without effect; also recorded: absence of Compound A effect
- increase in tear fluid volume (rabbits [4]; from STT wetting using reported relationship between STT wetting and volume): 2.7 µL
- compound efficacy in more viscous formulation (rabbits [4]; rabbit, 3 nmol, 0.625% (instead of 0.3%) CMC): unchanged
- increase in tear volume compared to vehicle (rabbits [4]; rabbit, single application of 3 nmol, 0.3% CMC): ~60%
- tear production (rabbits [4]; rabbit, single dose 0.75 nmol): no significant increase
- activity on tear production (rabbits [4]; rabbit, single dose 1.5 nmol): reduced duration of activity
- augmentation in tear production by STT, average over 9 hours (rabbits [4]; [14]): 5.3 mm
- duration of increase in tear volume / tear secretion (rabbits [4]; [14]): at least 9 hours
- extent of CFTR activation (CFTR [5]): fully activated CFTR
- EC50 (CFTR [5]): ~250 nM
- potency of CFTR activation (CFTR [5]; prior studies): nanomolar potency
- duration of doubled tear volume (mice [6]; delivered topically): four
- tear volume (mice [6]; delivered topically): doubled tear volume
- change in short-circuit current (CFTR [1]; 1 and then 10 μM Compound A after forskolin 25 nM): further increased
- EC50 (CFTR [1]; rabbit conjunctiva ex vivo, data at 1 vs. 10 μM, read-out: apparent EC50 of CFTR activation (short-circuit current)): < 1000 nM
- tear volume (STT) (rabbits [7]): augmented tear volume in a sustained fashion without tachyphylaxis
- elevation of total cellular cAMP (cAMP): without detectable elevation
- hepatic metabolism [8]: rapidly metabolized by the liver; also recorded: rapid predicted hepatic metabolism
- level in aqueous and vitreous fluid, lens and iris/ciliary body [9]: near or below the limit of detection
- level in blood, heart, brain, liver and kidney [9]: below the limit of detection
- level in vitreous fluid [9]: not detected
- rank of levels in ocular tissues [9]: cornea>conjunctiva>>retina
- concentration at 28 days ([9]; retina, topical, read-out: level in retina, equivalent concentration): < 10 nM
- IOP, vehicle vs. treated eyes (rabbits [10]; 3 nmol twice-daily for 28 days): No significant differences
- Lissamine green staining (rabbits [10]; 3 nmol twice-daily for 28 days): no injury to the ocular surface
- central corneal thickness, vehicle vs. treated eyes (rabbits [10]; 3 nmol twice-daily for 28 days): No significant differences
- slit-lamp evaluation (rabbits [10]; 3 nmol twice-daily for 28 days): no evidence of conjunctival hyperemia, anterior chamber inflammation, or lens opacification
- histology of cornea, conjunctiva, lens, ciliary body, retina (rabbits [10]; day 28): no pathological changes
- acute ocular irritation (blinking, behavior) (rabbits [10]; following topical administrations): No apparent acute ocular irritation
- time to maximal CFTR activation at the ocular surface (PD) (CFTR [2]; after exposure): within a few minutes
- change in ocular surface PD (CFTR [2]; low Cl- + amiloride, Compound A 1 and 10 μM): substantial depolarization

Molecule: CCN(CC)c1nc(Nc2ccccc2)nc(OC(C(F)(F)F)C(F)(F)F)n1 [Compound C]
- extent of CFTR activation (CFTR [5]): fully activated CFTR
- EC50 (CFTR [5]): ~30 nM
- duration of increase in tear volume (mice [6]; [15]): 8 h
- tear volume (mice [6]; [15]): sustained increase in tear volume
- corneal epithelial disruption (mice [11]): prevented corneal epithelial disruption
- pathology when administered after development of dry eye (mice [11]): reversed pathology
- tear volume (mice [11]): normalized tear volume

Molecule: N=C(N)NC(=O)c1nc(Cl)c(N)nc1N [amiloride]
- effect on short-circuit current (ENaC [12]): no effect
- change in ocular surface PD (ENaC [13]): initial depolarization

Molecule: O=c1ccn([C@@H]2O[C@H](COP(=O)(O)OP(=O)(O)OP(=O)(O)OP(=O)(O)OC[C@H]3O[C@@H](n4ccc(=O)[nH]c4=O)[C@H](O)[C@@H]3O)[C@@H](O)[C@H]2O)c(=O)[nH]1 [diquafosol]
- efficacy in dry eye (P2Y2 receptors): did not show efficacy
